Data: US4452991A, “Flavan derivatives useful for impairing RNA virus replication in a cell” (priority 1979, dated 1984)

These compounds were tested on virus (assay: Intranasal administration simulation in vitro (compound on lid of petri dish, inhibition of plaque formation)). Conditions: 1 μg compound spread on inside of petri dish lid, agarose-covered cells.
Format: cell-based
Text: (§1) Activity may be detected by the plaque inhibition (PI) test and measured by the plaque reduction (PR) test. Both assays involve the formation of a monolayer cell culture in a petri dish followed by infection with a virus suspension, and then overlaying the culture with nutrient agarose in the form of a gel. This gel ensures that there is no spread of virus throughout the culture and thus areas of localised cell destruction of plaques are formed.
In the plaque inhibition test a filter paper disc which holds 0.01 ml when impregnated with a solution of compound is placed on top of the agarose gel. The compound may then diffuse throughout the gel so that its greatest concentration will be around the disc and its lowest concentration towards the periphery of the petri dish. The efficacy of the compound may be detected by observing the zone inhibition of plaque formation.
Petri dishes were prepared, as for the plaque inhibition test and the confluent sheet of cells was covered with a layer of agarose gel. The compound, trans-3-methylflavan (1 μg) was dissolved in ethanol, and applied to the lids of the petri dishes. When the ethanol had evaporated, leaving the compound spread over the inside of the lids, these were replaced on the petri dishes.

Compound | inhibition of plaque formation
C[C@@H]1Cc2ccccc2O[C@H]1c1ccccc1 (relative stereo) [Example 1, trans-3-methylflavan] | total inhibition of plaque formation

What follows are compounds tested on virus (assay: plaque reduction (PR) test, antiviral activity in monolayer cell culture). Conditions: compound in nutrient agarose overlay, 50% effective dose vs control, read-out: PR (ED50 /μM).
Format: cell-based
Experimental: as §1
Detectable activity is measured with the plaque reduction assay. A range of concentrations of compound of known molarity are incorporated in the nutrient agarose overlay. Plaque suppression is proportional to compound concentration. Plaque numbers are expressed as percentages of a control, and a dose responsecurve may be drawn. From this curve 50% of the effective dose (ED50) may be estimated.

Compound | EC50
Clc1cccc2c1O[C@@H]1c3ccccc3C[C@@H]1C2 (relative stereo) [Example 8, cis-6-chloro-4b,10,10a,11-tetrahydrobenz(b)indeno(2,1-e)pyran] | 1.5 µM
C[C@@H]1Cc2cc(Cl)ccc2O[C@H]1c1ccc(Cl)cc1 (relative stereo) [Example 2, trans-4',6-dichloro-3-methylflavan] | 0.135 µM
c1ccc2c(c1)C[C@H]1Cc3ccccc3[C@H]1O2 (relative stereo) [Example 5, cis-4b,10,10a,11-tetrahydrobenz(b)indeno(2,1-e)pyran] | 0.38 µM
Clc1cc(Cl)c2c(c1)C[C@@H]1CCc3ccccc3[C@@H]1O2 (relative stereo) [Example 7, cis-9,11-dichloro-5,6,6a,12a-tetrahydro-7H-benzo(c)xanthene] | 6 µM
C[C@@H]1Cc2ccccc2O[C@H]1c1ccccc1 (relative stereo) [Example 1, trans-3-methylflavan] | 0.125 µM
c1ccc2c(c1)C[C@@H]1CCc3ccccc3[C@@H]1O2 (relative stereo) [Example 6, cis-5,6,6a,12a-tetrahydro-7H-benzo(c)xanthene] | 0.03 µM
Clc1cc(Cl)c2c(c1)C[C@H]1Cc3ccccc3[C@H]1O2 (relative stereo) [Example 9, Cis-6,8-dichloro-4b,10,10a,11-tetrahydrobenz(b)indeno(2,1-e)pyran] | 0.57 µM
C[C@H]1Cc2ccccc2O[C@H]1c1ccccc1 (relative stereo) [Example 3, cis-3-methylflavan] | 1.1 µM
